Where two headings read alike, the source gives them in different places.
Columns and labels:
[1] = system: cell bound form of LFA-1 (CD18, CD11a) with ICAM-1, SKW3 cells; assay: Inhibition of SKW3 cell binding to ICAM-1 (PMA-stimulated); assay type: cell-based, human; details: Homo sapiens, read-out: Assay to Detect SKW3 Cells Binding to ICAM IC50
Description: (§1) Assay to Determine Inhibition of SKW3 cell binding to ICAM-1 vs. Binding to Fibronectin
(§2) This assay is used to test the selective ability of a test compound to antagonize the interaction of a cell bound form of LFA-1 with ICAM-1. The assay uses a human T cell line, SKW3 cells which express CD18, CD11a and other integrins not related to CD18, CD11a and which can be “activated” by phorbol esters. Phorbol esters enhance the affinity of CD18, CD11a for ICAM-1.
(§3) This same lymphocyte line, SKW3, also adheres to fibronectin in the presence of phorbol esters. This adhesion is mediated by membrane proteins independent of the LFA-1/ICAM-1 interaction. The SKW3 cells express another integrin, VLA4, which is the receptor for fibronectin. Therefore, as a preliminary indication of the selectivity of a test compounds to interfere with Leukointegrin/CAM interactions but not other integrin-ligand binding events, a compound can be tested for its ability to antagonize cell bound fibronectin receptor in its interaction with purified fibronectin. Compounds that inhibit this fibronectin adhesion are not specific antagonists of the CD18, CD11a/ICAM-1 binding.
(§4) Description of Assay Protocol:
(§5) Ninety-six well plates are coated with either sICAM-1(40 μg/mL) or fibronectin (100 μg/mL) in Diluting buffer for 1 h at room temperature. Added to the wells are 100 μL of the appropriately diluted test compound or 100 μL of RPMI with 15% fetal bovine serum as a control. SKW3 cells, which express CD18, CD11a and VLA4 (Dustin, M.; et al., J. Exp. Med. 1987, 165, 672-692) are washed and suspended to a concentration of 10^6 cells/mL in RPMI with 15% fetal bovine serum. Immediately before adding the cells to the wells, cells are stimulated with the phorbol ester 12-myristate 13-acetate (PMA) for a final concentration of […]. 100 μL of cells are then added to the wells resulting in a final concentration of […]. The plates are incubated for 2 h at 37° C. Unbound or loosely bound cells are gently washed away with RPMI.
(§6) Data are reported as the concentration or concentration range (in μM) at which 50% of binding is inhibited.

[2] = target: T1, interaction of ICAM-1 with the Leukointegrin CD18/CD11a (LFA-1) (Homo sapiens, UniProt P05107+P20701); assay: Assay to determine inhibition of LFA-1 binding to ICAM-1 (immunopurified LFA-1 on plate-bound sICAM-1, ELISA readout)
T1 construct: endogenous in cells; sICAM-1: made in house, secreted from transfected CHO DUX cells

[3] = system: LFA-1 dependent aggregation of JY cells; assay: JY cell homotypic aggregation assay (PMA-stimulated); assay type: cell-based, human; details: Homo sapiens
Description: This aggregation can be enhanced by the addition of phorbol esters. […] Thus, the extent of LFA-1-dependent binding may be determined by assessing the extent of spontaneous or phorbol ester-dependent aggregate formation.
An agent which interferes with LFA-1 -dependent aggregation can be identified through the use of an assay capable of determining whether the agent interferes with either spontaneous, or phorbol ester-dependent aggregation of Epstein-Barr virus transformed cells. It is preferable to employ cells of the JY cell line (Terhost, L; et aL, Proc. Natl. Acad. Sci. USA, 1976, 73, 910) for the homotypic aggregation assay. This assay, capable of measuring LFA-1 dependent aggregation, may be employed to identify agents which act as antagonists to the LFA-1 dependent aggregation. Such agents may act by impairing the ability of either LFA-1 or ICAM-1 to mediate aggregation. Thus, agents may be examined to directly determine if they are antagonists of LFA-1 aggregation.
as §4
JY cells are cultured in RPMI 1640 culture medium supplemented with 10% fetal calf serum and 50 μg/mL gentamycin. The cells are cultured at 37° C. in an atmosphere of 5% CO2 at a relative humidity of 95%. JY cells used in this assay are washed two times with RPMI 1640 medium containing 5 mM HEPES buffer and resuspended to a concentration of 2·10^6 cells/mL. Added to flat-bottomed, 96-well microtiter plates are 50 μL of test compound diluted in complete medium, 50 μL of complete medium with or without purified monoclonal antibodies (negative and positive controls for inhibition, respectively), 50 μL of complete medium containing 200 ng/mL of the phorbol ester phorbol myristate acetate (PMA) and 100 μL of cells at a concentration of 2·10^6 cells/mL in complete medium. This yields a final concentration of […] PMA and 2·10^5 cells/well. Cells are allowed to settle spontaneously, and the degree of aggregation is scored at various time points. […] This procedure has been described by Rothlein, R. R.; et al., J. Exp. Med. 1986, 163, 1132-1149. This paper also reported that antibody to LFA-1 is capable of inhibiting the formation of aggregates.
as §6

[4] = system: cell bound fibronectin receptor (VLA4) with fibronectin, SKW3 cells; assay: Inhibition of SKW3 cell binding to fibronectin (selectivity counter-assay); assay type: cell-based, human; details: for IC50: Homo sapiens, SKW3, values marked c: no inhibition observed up to highest dose, read-out: Assay to Detect SKW3 Cells Binding to FIBRONECTIN IC50
Description: as §1, §2, §3, §4, §5, §6

[5] = SKW3, values marked c: no inhibition observed up to highest dose
[6] = values marked e approximated from incomplete dose-response curve
[7] = values marked c: no inhibition observed up to highest dose
[8] = No inh = no inhibition observed up to highest dose, exact quantification not always possible due to intrinsic toxicity

T1 sequence (P20701 26-1170): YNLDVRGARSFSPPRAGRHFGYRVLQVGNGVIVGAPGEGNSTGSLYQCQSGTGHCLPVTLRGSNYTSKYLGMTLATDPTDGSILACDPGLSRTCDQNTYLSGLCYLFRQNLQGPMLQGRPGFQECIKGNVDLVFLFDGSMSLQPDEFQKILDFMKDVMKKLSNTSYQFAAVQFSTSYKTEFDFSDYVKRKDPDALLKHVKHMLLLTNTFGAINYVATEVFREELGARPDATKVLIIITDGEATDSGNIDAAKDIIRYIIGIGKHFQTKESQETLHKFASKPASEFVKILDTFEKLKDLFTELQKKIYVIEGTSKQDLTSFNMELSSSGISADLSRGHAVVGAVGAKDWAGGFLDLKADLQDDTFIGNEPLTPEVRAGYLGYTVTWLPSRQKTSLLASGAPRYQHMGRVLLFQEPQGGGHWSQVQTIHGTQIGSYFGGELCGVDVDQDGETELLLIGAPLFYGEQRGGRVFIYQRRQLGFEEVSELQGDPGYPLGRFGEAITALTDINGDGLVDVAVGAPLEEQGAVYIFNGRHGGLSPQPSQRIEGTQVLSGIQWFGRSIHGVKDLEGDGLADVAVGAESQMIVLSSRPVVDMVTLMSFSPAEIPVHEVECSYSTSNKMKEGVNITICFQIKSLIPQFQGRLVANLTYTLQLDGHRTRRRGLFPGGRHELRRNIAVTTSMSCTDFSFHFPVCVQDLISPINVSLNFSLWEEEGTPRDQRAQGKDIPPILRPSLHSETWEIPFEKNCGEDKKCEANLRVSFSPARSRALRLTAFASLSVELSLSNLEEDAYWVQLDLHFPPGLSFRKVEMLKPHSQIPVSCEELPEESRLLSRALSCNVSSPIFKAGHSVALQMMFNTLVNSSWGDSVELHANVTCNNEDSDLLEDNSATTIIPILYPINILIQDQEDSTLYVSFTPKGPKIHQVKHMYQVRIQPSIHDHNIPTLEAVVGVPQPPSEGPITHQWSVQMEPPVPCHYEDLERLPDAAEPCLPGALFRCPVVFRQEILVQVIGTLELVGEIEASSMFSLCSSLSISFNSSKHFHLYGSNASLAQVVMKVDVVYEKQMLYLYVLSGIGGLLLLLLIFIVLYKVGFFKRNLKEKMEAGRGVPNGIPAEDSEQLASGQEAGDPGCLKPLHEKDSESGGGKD
T1 sequence (P05107 23-769): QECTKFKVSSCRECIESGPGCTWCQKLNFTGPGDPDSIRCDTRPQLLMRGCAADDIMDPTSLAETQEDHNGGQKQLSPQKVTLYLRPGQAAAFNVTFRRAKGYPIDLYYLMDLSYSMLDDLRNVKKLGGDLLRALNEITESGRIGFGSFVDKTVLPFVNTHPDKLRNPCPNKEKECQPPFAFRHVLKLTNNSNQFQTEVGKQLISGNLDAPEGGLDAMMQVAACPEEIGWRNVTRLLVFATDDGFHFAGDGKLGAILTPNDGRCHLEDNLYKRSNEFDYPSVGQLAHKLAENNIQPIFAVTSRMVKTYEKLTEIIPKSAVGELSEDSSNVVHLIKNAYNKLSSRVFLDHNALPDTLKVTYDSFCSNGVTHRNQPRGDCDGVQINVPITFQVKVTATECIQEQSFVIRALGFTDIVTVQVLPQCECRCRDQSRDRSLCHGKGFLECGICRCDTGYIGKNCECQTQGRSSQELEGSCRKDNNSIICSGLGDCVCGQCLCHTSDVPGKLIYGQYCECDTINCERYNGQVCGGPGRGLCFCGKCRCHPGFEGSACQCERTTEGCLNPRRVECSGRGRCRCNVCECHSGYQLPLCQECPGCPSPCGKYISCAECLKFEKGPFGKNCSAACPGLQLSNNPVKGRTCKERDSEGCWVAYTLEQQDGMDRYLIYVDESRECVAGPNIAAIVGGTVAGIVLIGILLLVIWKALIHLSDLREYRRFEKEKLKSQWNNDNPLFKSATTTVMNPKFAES

| Structure (SMILES) | IC50 [1, 5] | Kd [2, 6] | IC50 [3] | Assay to Detect SKW3 Cells Binding to FIBRONECTIN IC50 [4, 7] | Cellular Toxicity Assay MTT LD50 (SKW3 cells) | IC50 [4] | IC50 ([1]; SKW3) | Kd [2] | Assay to Detect SKW3 Cells Binding to FIBRONECTIN IC50 [4, 8] |
| --- | --- | --- | --- | --- | --- | --- | --- | --- | --- |
| C[C@]1(Cc2ccc(Br)cc2)NC(=O)N(c2cc(C(F)(F)F)cc(C(F)(F)F)c2)C1=O [Example 35] | 5 to 10 µM | 0.1 µM | 0.8 µM | No inh^c | 38 to 46 µM |  |  |  |  |
| CC(=O)CN1C(=O)N(c2cc(Cl)cc(Cl)c2)C(=O)[C@@]1(C)Cc1ccc(Br)cc1 [Example 117] | 12 µM | 1.09 µM | 2.2 µM |  | 12 µM | 12 µM |  |  |  |
| CN1C(=O)N(c2cc(Cl)cc(Cl)c2)C(=O)C1(C)Cc1ccc(Cl)cc1 (stereo not shown) [Example 154] | 5 to 10 µM | 0.094 µM | 0.4 µM | No inh^c | 200 µM |  |  |  |  |
| C[C@@]1(Cc2ccc(Br)cc2)C(=O)N(c2cc(Cl)cc(Cl)c2)C(=O)N1CCCP(=O)(O)O [Example 223] |  |  | 0.2 µM |  | 200 to 400 µM |  | 2 to 4 µM | 0.15 µM | No inh^c |
| C[C@@]1(Cc2ccc(Br)cc2)C(=O)N(c2cc(Cl)cc(Cl)c2)C(=O)N1Cc1cccc(O)c1 [Example 245] |  |  | 0.7 µM |  | 25 to 50 µM |  | 1 to 3 µM | 0.21 µM | No inh^c |
| CN1C(=O)N(c2cc(Cl)cc(Cl)c2)C(=O)[C@@]1(C)Cc1ccc([N+](=O)[O-])cc1 [Example 134] | 1.5 µM | 0.05 µM | 0.1 µM | No inh^c | >250 µM |  |  |  |  |
| C[C@@]1(Cc2ccc(Br)cc2)C(=O)N(c2cc(Cl)cc(Cl)c2)C(=O)N1Cc1ccncc1 [Example 103] | 25 µM | 0.1 µM | 0.13 µM |  | 25 to 50 µM | > 25 µM |  |  |  |
| Cc1cc(Br)cc(C)c1C[C@]1(C)C(=O)N(c2cc(Cl)cc(Cl)c2)C(=O)N1C [Example 122] | 12 to 25 µM | 0.13 µM | 1.8 µM | No inh^c | 200 to 400 µM |  |  |  |  |
| C[C@@]1(Cc2ccc(Br)cc2)C(=O)N(c2cc(Cl)cc(Cl)c2)C(=O)N1CCCCCCl [Example 121] | 0.8 to 2 µM | 0.21 µM | 25 µM | No inh^c | <11 µM |  |  |  |  |
| C[C@@]1(Cc2ccc(Br)cc2)C(=O)N(c2cc(Cl)cc(Cl)c2)C(=O)N1Cc1ccc(C(=O)O)cc1 [Example 228] |  |  | 1.6 µM |  | 50 to 100 µM |  | 12 to 25 µM | 0.41 µM | No inh^c |
| C[C@]1(Cc2ccc([N+](=O)[O-])cc2)NC(=O)N(c2cc(Cl)cc(Cl)c2)C1=O [Example 44] | 6 to 12 µM | 0.42 µM | 0.3 µM | No inh^c | 63 to 125 µM |  |  |  |  |

Source: patent USRE38132E1, “Phenylpyrrolidines, phenylimidazolidines,3-phenyl-1,3-oxizolidines and 3-phenyl-1,3-thiazolidines and their use in the treatment of inflammatory disease” (Boehringer Ingelheim Pharmaceuticals, Inc., priority 1997, dated 2003)
